{"source": "patent US11877993B1", "about": "“Gamma-hydroxybutyrate salts for the treatment of psychological disorders” (priority 2021, dated 2024)", "origin": "cited, not measured here", "system": "patients with severe PTSD", "settings": "MDMA-assisted therapy", "data": [{"compound": "CNC(C)Cc1ccc2c(c1)OCO2", "note": "(stereo not drawn) [MDMA, 3,4-methylenedioxymethamphetamine]", "values": [{"measurement": "Tolerability", "setting": "individuals with severe PTSD, even with comorbidities", "value": "well-tolerated"}, {"measurement": "Attenuation in CAPS-5 score compared with placebo, effect size d", "setting": "severe PTSD, P<0.0001", "value": 0.91}, {"measurement": "Decrease of SDS total score, effect size d", "setting": "severe PTSD, P=0.0116", "value": 0.43}]}]}
